Like-named read-outs stand apart in the source and are kept apart here.

In general, EC50 refers to the concentration giving half of the maximal effect.

The test system of experiment [1] is OCI-AML3 cells. Put plainly: OCI-AML3 cell growth inhibition, dose-response viability assay (CellTiterGlo). Particulars: Homo sapiens, OCI-AML-3, 144 h, read-out: AML-3 EC50. The experiment is classed as cell-based. The protocol:
Cell dose-response viability assays. […] In the initial screen, compounds were added to seeded cells in serial dilutions (10 dilutions, 1:3, starting from […] 20 μM), in duplicates.
(§1) The potency of the compounds of Example 6 at inhibiting OCI-AML3 cell growth was tested using a procedure similar to that described for Mutritinib in Example 1. […] Murine MLL-AF9 leukemia cells (female cells) were generated by infection with VSV-G-pseudotyped MSCV MLL-AF9 IRES Puro (subcloned from a construct by Frédéric Barabé, Laval U, Quebec, QC, Canada).
(§2) Compounds were added to seeded cells in serial dilutions from 10 μM to 0.5 nM, in duplicates or quadruplicates.
On the technique in general: In ATP-based viability assays light output follows the ATP content of the culture.

Experiment [2] relates to MLL-AF9 cells. Briefly: MLL-AF9 leukemia cell growth inhibition, dose-response viability assay (CellTiterGlo). The format is cell-based, murine. To be noted: Mus musculus, read-out: MLL-AF9 EC50. The procedure: as §1, §2

Take `OC(CCCn1ccnn1)c1ccc(OCc2coc(/C=C/c3ccc(Br)cc3F)n2)cc1` (stereo not shown) [Compound 21, (E)-1-(4-((2-(4-bromo-2-fluorostyryl)oxazol-4-yl)methoxy)phenyl)-4-(1H-1,2,3-triazol-1-yl)butan-1-ol]: the concentration giving a half-maximal response (EC50) is 100 to 500 nM in experiment [1] and 50 to 100 nM in experiment [2] (MLL-AF9, 120 h).

With `O=C(CCCn1ccnn1)c1ccc(OCc2coc(/C=C/c3ccc(C(F)(F)F)cc3F)n2)cc1` [Compound 22, (E)-1-(4-((2-(2-fluoro-4-(trifluoromethyl)styryl)oxazol-4-yl)methoxy)phenyl)-4-(1H-1,2,3-triazol-1-yl)butan-1-one], the half-maximal effective concentration (EC50) in experiment [1] was 500 to 1000 nM; in experiment [2] (MLL-AF9, 120 h), 100 to 500 nM.

Regarding `OC(CCCn1ccnn1)c1ccc(OCc2coc(/C=C/c3ccc(C(F)(F)F)cc3F)n2)cc1` (stereo not shown) [Compound 23, (E)-1-(4-((2-(2-fluoro-4-(trifluoromethyl)styryl)oxazol-4-yl)methoxy)phenyl)-4-(1H-1,2,3-triazol-1-yl)butan-1-ol], the half-maximal effective concentration (EC50) fell in the range of 100 to 500 nM in experiment [1] and 50 to 100 nM in experiment [2] (MLL-AF9, 120 h).

As for `O=C(CCCn1ccnn1)c1ccc(OCc2coc(/C=C/c3ccc([N+](=O)[O-])cc3F)n2)cc1` [Compound 24, (E)-1-(4-((2-(2-fluoro-4-nitrostyryl)oxazol-4-yl)methoxy)phenyl)-4-(1H-1,2,3-triazol-1-yl)butan-1-one], the concentration for a half-maximal effect (EC50) in experiment [1] is 1000 to 10000 nM; in experiment [2] (MLL-AF9, 120 h), 500 to 1000 nM.

As for `O=[N+]([O-])c1ccc(/C=C/c2nc(COc3ccc(C(O)CCCn4ccnn4)cc3)co2)c(F)c1` (stereo not shown) [Compound 25, (E)-1-(4-((2-(2-fluoro-4-nitrostyryl)oxazol-4-yl)methoxy)phenyl)-4-(1H-1,2,3-triazol-1-yl)butan-1-ol], the EC50 in experiment [1] was 1000 to 10000 nM; in experiment [2] (MLL-AF9, 120 h) it was 500 to 1000 nM.

On to `FC(F)(F)c1ccc(/C=C/c2nc(CNc3ccc(CCCCn4ccnn4)cc3)co2)cc1` [Compound 26, (E)-4-(4-(1H-1,2,3-triazol-1-yl)butyl)-N-((2-(4-(trifluoromethyl)styryl)oxazol-4-yl)methyl)aniline], for which the EC50 in experiment [1] is 1000 to 10000 nM; in experiment [2] (MLL-AF9, 120 h) it was 100 to 500 nM.

Regarding `Fc1cc(Br)ccc1/C=C/c1nc(CNc2ccc(CCCCn3ccnn3)cc2)co1` [Compound 27, (E)-4-(4-(1H-1,2,3-triazol-1-yl)butyl)-N-((2-(4-bromo-2-fluorostyryl)oxazol-4-yl)methyl)aniline], the EC50 was 500 to 1000 nM in experiment [1] and 50 to 100 nM in experiment [2] (MLL-AF9, 120 h).

Regarding `FC(F)(F)c1ccc(-c2nc(COc3ccc(CCCCn4ccnn4)cc3)co2)cc1` [Compound 28, 4-((4-(4-(1H-1,2,3-triazol-1-yl)butyl)phenoxy)methyl)-2-(4-(trifluoromethyl)phenyl)oxazole], the EC50 in experiment [1] (OCI-AML3 cells, 6 days of culture, CellTiterGlo) was in the range of 1000 to 10000 nM; in experiment [2] (120 h, MLL-AF9 cells, 5 days of culture, CellTiterGlo), 100 to 500 nM.

With `O=C(Nc1ccc(CCCCO)cc1)c1coc(/C=C/c2ccc(C(F)(F)F)cc2)n1` [Compound 29, (E)-N-(4-(4-hydroxybutyl)phenyl)-2-(4-(trifluoromethyl)styryl)oxazole-4-carboxamide], the EC50 was in the range of 1000 to 10000 nM in experiment [1] and 100 to 500 nM in experiment [2] (MLL-AF9, 120 h).

On to `O=C(Nc1ccc(CCCCn2ccnn2)cc1)c1coc(/C=C/c2ccc(C(F)(F)F)cc2)n1` [Compound 30, (E)-N-(4-(4-(1H-1,2,3-triazol-1-yl)butyl)phenyl)-2-(4-(trifluoromethyl)styryl)oxazole-4-carboxamide], for which the EC50 in experiment [1] was in the range of 500 to 1000 nM; in experiment [2] (MLL-AF9, 120 h), 100 to 500 nM.

Take `CN(C)c1cccc2c(S(=O)(=O)NCCc3cn(CCCCc4ccc(OCc5coc(/C=C/c6ccc(C(F)(F)F)cc6)n5)cc4)nn3)cccc12` [Compound 31, (E)-5-(dimethylamino)-N-(2-(1-(4-(4-((2-(4-(trifluoromethyl)styryl)oxazol-4-yl)methoxy)phenyl)butyl)-1H-1,2,3-triazol-4-yl)ethyl)naphthalene-1-sulfonamide]: the EC50 was in the range of 1000 to 10000 nM in experiment [1] and 500 to 1000 nM in experiment [2] (MLL-AF9, 120 h).

In the case of `COc1ccc(/C=C/c2nc(COc3ccc(CCCCn4ccnn4)cc3)co2)cc1` [Compound 32, (E)-4-((4-(4-(1H-1,2,3-triazol-1-yl)butyl)phenoxy)methyl)-2-(4-methoxystyryl)oxazole], the EC50 in experiment [1] lay within 100 to 500 nM; in experiment [2] (MLL-AF9, 120 h), 100 to 500 nM.

For `Brc1ccc(/C=C/c2nc(COc3ccc(CCCCn4ccnn4)cc3)co2)cc1` [Compound 33, (E)-4-((4-(4-(1H-1,2,3-triazol-1-yl)butyl)phenoxy)methyl)-2-(4-bromostyryl)oxazole], the half-maximal effective concentration (EC50) lay within 100 to 500 nM in experiment [1] and 100 to 500 nM in experiment [2] (MLL-AF9, 120 h).

Consider `CCN(CC)C(=O)OCCCCc1ccc(OCc2coc(/C=C/c3ccc(C(F)(F)F)cc3)n2)cc1` [Compound 34, (E)-4-(4-((2-(4-(trifluoromethyl)styryl)oxazol-4-yl)methoxy)phenyl)butyl diethylcarbamate], for which the 50% effective concentration (EC50) in experiment [1] lay in the range of 1000 to 10000 nM; in experiment [2] (MLL-AF9, 120 h) it was 1000 to 10000 nM.

Consider `O=C(OCCCCc1ccc(OCc2coc(/C=C/c3ccc(C(F)(F)F)cc3)n2)cc1)N1CCOCC1` [Compound 35, (E)-4-(4-((2-(4-(trifluoromethyl)styryl)oxazol-4-yl)methoxy)phenyl)butyl morpholine-4-carboxylate], for which the concentration giving a half-maximal response (EC50) is 1000 to 10000 nM in experiment [1] and 500 to 1000 nM in experiment [2] (MLL-AF9, 120 h).

In the case of `CN(C)C(=O)OCCCCc1ccc(OCc2coc(/C=C/c3ccc(C(F)(F)F)cc3)n2)cc1` [Compound 36, (E)-4-(4-((2-(4-(trifluoromethyl)styryl)oxazol-4-yl)methoxy)phenyl)butyl dimethylcarbamate], the half-maximal effective concentration (EC50) in experiment [1] lay in the range of 1000 to 10000 nM; in experiment [2] (MLL-AF9, 120 h), 1000 to 10000 nM.

In the case of `N#Cc1ccc(/C=C/c2nc(COc3ccc(CCCCn4ccnn4)cc3)co2)cc1` [Compound 37, (E)-4-(2-(4-((4-(4-(1H-1,2,3-triazol-1-yl)butyl)phenoxy)methyl)oxazol-2-yl)vinyl)benzonitrile], the half-maximal effective concentration (EC50) lay within 100 to 500 nM in experiment [1] and 100 to 500 nM in experiment [2] (MLL-AF9, 120 h).

On to `Clc1ccc(/C=C/c2nc(COc3ccc(CCCCn4ccnn4)cc3)co2)cc1` [Compound 38, (E)-4-((4-(4-(1H-1,2,3-triazol-1-yl)butyl)phenoxy)methyl)-2-(4-chlorostyryl)oxazole], for which the EC50 in experiment [1] is 50 to 100 nM; in experiment [2] (MLL-AF9, 120 h), 100 to 500 nM.

For `Fc1ccc(/C=C/c2nc(COc3ccc(CCCCn4ccnn4)cc3)co2)cc1` [Compound 39, (E)-4-((4-(4-(1H-1,2,3-triazol-1-yl)butyl)phenoxy)methyl)-2-(4-fluorostyryl)oxazole], the 50% effective concentration (EC50) fell in the range of 100 to 500 nM in experiment [1] and 100 to 500 nM in experiment [2] (MLL-AF9, 120 h).

In the case of `O=[N+]([O-])c1ccc(/C=C/c2nc(COc3ccc(CCCCn4ccnn4)cc3)co2)cc1` [Compound 40, (E)-4-((4-(4-(1H-1,2,3-triazol-1-yl)butyl)phenoxy)methyl)-2-(4-nitrostyryl)oxazole], the EC50 in experiment [1] was in the range of 50 to 100 nM; in experiment [2] (MLL-AF9, 120 h), 100 to 500 nM.

Turning to `Fc1ccccc1/C=C/c1nc(COc2ccc(CCCCn3ccnn3)cc2)co1` [Compound 41, (E)-4-((4-(4-(1H-1,2,3-triazol-1-yl)butyl)phenoxy)methyl)-2-(2-fluorostyryl)oxazole], the EC50 in experiment [1] was 100 to 500 nM; in experiment [2] (MLL-AF9, 120 h), 100 to 500 nM.

Take `O=[N+]([O-])c1ccccc1/C=C/c1nc(COc2ccc(CCCCn3ccnn3)cc2)co1` [Compound 42, (E)-4-((4-(4-(1H-1,2,3-triazol-1-yl)butyl)phenoxy)methyl)-2-(2-nitrostyryl)oxazole]: the half-maximal effective concentration (EC50) is 500 to 1000 nM in experiment [1] and 100 to 500 nM in experiment [2] (MLL-AF9, 120 h).

As to `O=[N+]([O-])c1cccc(/C=C/c2nc(COc3ccc(CCCCn4ccnn4)cc3)co2)c1` [Compound 43, (E)-4-((4-(4-(1H-1,2,3-triazol-1-yl)butyl)phenoxy)methyl)-2-(3-nitrostyryl)oxazole], the EC50 lay in the range of 1000 to 10000 nM in experiment [1] and 1000 to 10000 nM in experiment [2] (MLL-AF9, 120 h).

For the compound `FC(F)(F)c1ccccc1/C=C/c1nc(COc2ccc(CCCCn3ccnn3)cc2)co1` [Compound 44, (E)-4-((4-(4-(1H-1,2,3-triazol-1-YI)butyl)phenoxy)methyl)-2-(2-(trifluoromethyl)styryl)oxazole], the EC50 in experiment [1] is 1000 to 10000 nM; in experiment [2] (MLL-AF9, 120 h), greater than 10000 nM.

Turning to `Fc1ccc(/C=C/c2nc(COc3ccc(CCCCn4ccnn4)cc3)co2)c(F)c1` [Compound 45, (E)-4-((4-(4-(1H-1,2,3-triazol-1-yl)butyl)phenoxy)methyl)-2-(2,4-difluorostyryl)oxazole], the EC50 in experiment [1] fell in the range of 50 to 100 nM; in experiment [2] (MLL-AF9, 120 h), 100 to 500 nM.

Consider `Fc1cccc(F)c1/C=C/c1nc(COc2ccc(CCCCn3ccnn3)cc2)co1` [Compound 46, (E)-4-((4-(4-(1H-1,2,3-triazol-1-yl)butyl)phenoxy)methyl)-2-(2,6-difluorostyryl)oxazole], for which the concentration for a half-maximal effect (EC50) in experiment [1] lay within 500 to 1000 nM; in experiment [2] (MLL-AF9, 120 h) it was 1000 to 10000 nM.

`C(=C\c1nc(COc2ccc(CCCCn3ccnn3)cc2)co1)/c1ccccc1` [Compound 47, (E)-4-((4-(4-(1H-1,2,3-triazol-1-yl)butyl)phenoxy)methyl)-2-styryloxazole]: the EC50 in experiment [1] was in the range of 100 to 500 nM; in experiment [2] (MLL-AF9, 120 h), 100 to 500 nM.

In the case of `Fc1cc(C(F)(F)F)ccc1/C=C/c1nc(COc2ccc(CCCCn3ccnn3)cc2)co1` [Compound 48, (E)-4-((4-(4-(1H-1,2,3-triazol-1-yl)butyl)phenoxy)methyl)-2-(2-fluoro-4-(trifluoromethyl)styryl)oxazole], the concentration for a half-maximal effect (EC50) in experiment [1] is 50 to 100 nM; in experiment [2] (MLL-AF9, 120 h) it was less than 50 nM.

On to `FC(F)(F)c1cccc(/C=C/c2nc(COc3ccc(CCCCn4ccnn4)cc3)co2)c1` [Compound 49, (E)-4-((4-(4-(1H-1,2,3-triazol-1-yl)butyl)phenoxy)methyl)-2-(3-(trifluoromethyl)styryl)oxazole], for which the concentration giving a half-maximal response (EC50) in experiment [1] is 1000 to 10000 nM; in experiment [2] (MLL-AF9, 120 h), 1000 to 10000 nM.
